{"source": "patent US7678393B1", "about": "“Mixture composition and method useful for topical and internal application” (DB Laboratories LLC, priority 2006, dated 2010)", "origin": "cited, not measured here", "key": {"F0F1-ATPase/ATP synthase": {"system": "F0F1-ATPase/ATP synthase", "conditions": "micromolar concentrations"}, "iNOS": {"system": "iNOS", "conditions": "LPS stimulation"}, "cyclooxygenase-2 (COX-2)": {"system": "cyclooxygenase-2 (COX-2)", "conditions": "LPS stimulation"}, "Interlukin-2 (IL-2)": {"molecular_target": "Interlukin-2 (IL-2) (Homo sapiens, UniProt P60568)", "sequence (P60568 21-153, species assumed)": "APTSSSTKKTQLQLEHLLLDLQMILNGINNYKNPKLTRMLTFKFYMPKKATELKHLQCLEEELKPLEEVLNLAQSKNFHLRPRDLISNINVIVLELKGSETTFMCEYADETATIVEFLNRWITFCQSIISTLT", "conditions": "by direct binding of IL-2"}}, "data": [{"molecule": "O=c1c(O)c(-c2ccc(O)cc2)oc2cc(O)cc(O)c12", "note": "[kaempferol]", "values": [{"measurement": "inhibition of F0F1-ATPase/ATP synthase", "setting": "F0F1-ATPase/ATP synthase", "value": "showed inhibition at micromolar concentrations"}, {"measurement": "iNOS activation by LPS", "setting": "iNOS", "value": "inhibited"}, {"measurement": "COX-2 activation by LPS", "setting": "cyclooxygenase-2 (COX-2)", "value": "inhibited"}]}, {"molecule": "Lipoteichoic acid [LTA]", "values": [{"measurement": "bound in plasma lipoproteins, efficiency", "setting": "plasma lipoproteins; plasma", "value": "> 95", "unit": "%"}, {"measurement": "distribution in HDL", "setting": "plasma lipoproteins; plasma lipoproteins", "value": "68%±10%"}, {"measurement": "distribution in LDL", "setting": "plasma lipoproteins; plasma lipoproteins", "value": "28%±8%"}, {"measurement": "distribution in VLDL", "setting": "plasma lipoproteins; plasma lipoproteins", "value": "4%±5%"}, {"measurement": "Interlukin-2 function", "setting": "Interlukin-2 (IL-2)", "value": "inhibits"}]}, {"molecule": "O=c1cc(-c2ccc(O)cc2)oc2cc(O)cc(O)c12", "note": "[apigenin]", "values": [{"measurement": "iNOS activation by LPS", "setting": "iNOS", "value": "inhibited"}, {"measurement": "COX-2 activation by LPS", "setting": "cyclooxygenase-2 (COX-2)", "value": "inhibited"}]}, {"molecule": "O=C(O[C@@H]1Cc2c(O)cc(O)cc2O[C@@H]1c1cc(O)c(O)c(O)c1)c1cc(O)c(O)c(O)c1", "note": "[(−)epigallocatechin-3-gallate]", "values": [{"measurement": "inhibition of F0F1-ATPase/ATP synthase", "setting": "F0F1-ATPase/ATP synthase", "value": "showed inhibition at micromolar concentrations"}, {"measurement": "iNOS activation by LPS", "setting": "iNOS", "value": "inhibited"}, {"measurement": "COX-2 activation by LPS", "setting": "cyclooxygenase-2 (COX-2)", "value": "inhibited"}]}, {"molecule": "Oc1ccc(/C=C/c2cc(O)cc(O)c2)cc1", "note": "[resveratol]", "values": [{"measurement": "inhibition of F0F1-ATPase/ATP synthase", "setting": "F0F1-ATPase/ATP synthase", "value": "showed inhibition at micromolar concentrations"}]}, {"molecule": "O=C(OC[C@H]1O[C@@H](OC(=O)c2cc(O)c(O)c(OC(=O)c3cc(O)c(O)c(O)c3)c2)[C@H](OC(=O)c2cc(O)c(O)c(OC(=O)c3cc(O)c(O)c(O)c3)c2)[C@@H](OC(=O)c2cc(O)c(O)c(OC(=O)c3cc(O)c(O)c(O)c3)c2)[C@@H]1OC(=O)c1cc(O)c(O)c(OC(=O)c2cc(O)c(O)c(O)c2)c1)c1cc(O)c(O)c(OC(=O)c2cc(O)c(O)c(O)c2)c1", "note": "[tannic acid]", "values": [{"measurement": "inhibition of F0F1-ATPase/ATP synthase", "setting": "F0F1-ATPase/ATP synthase", "value": "showed inhibition at micromolar concentrations"}]}]}
